Drawing on US6265578A, “Pyrimidine-2,4,6-triones” (Hoffmann-La Roche Inc., priority 2000, dated 2001), this text covers IC50 for four molecules.

Like-named read-outs stand apart in the source and are kept apart here.

Common to all, as to format: biochemical
The target in assay [1] is T1, gelatinase-A (human 72 kDa gelatinase) (Homo sapiens, UniProt P08253).
T1 construct: endogenous in cells; host or cells: fetal lung fibroblasts (purified from conditioned media)
T1 sequence (P08253 110-660): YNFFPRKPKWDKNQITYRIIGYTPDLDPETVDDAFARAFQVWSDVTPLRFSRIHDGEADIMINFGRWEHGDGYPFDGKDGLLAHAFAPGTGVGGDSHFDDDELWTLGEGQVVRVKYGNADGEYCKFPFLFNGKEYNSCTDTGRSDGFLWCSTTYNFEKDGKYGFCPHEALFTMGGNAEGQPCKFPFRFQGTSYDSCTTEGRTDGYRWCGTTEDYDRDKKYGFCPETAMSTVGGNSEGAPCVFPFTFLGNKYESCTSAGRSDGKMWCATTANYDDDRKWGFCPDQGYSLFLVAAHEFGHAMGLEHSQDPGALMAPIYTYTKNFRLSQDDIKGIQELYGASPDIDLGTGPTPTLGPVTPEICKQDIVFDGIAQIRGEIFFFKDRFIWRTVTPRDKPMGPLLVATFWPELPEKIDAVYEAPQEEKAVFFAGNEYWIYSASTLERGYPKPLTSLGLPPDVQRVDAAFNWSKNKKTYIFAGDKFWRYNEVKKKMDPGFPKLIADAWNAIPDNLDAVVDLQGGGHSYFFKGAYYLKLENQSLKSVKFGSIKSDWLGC
Put plainly: IC50 for inhibition of gelatinase-A (human 72 kDa gelatinase), fluorogenic peptide cleavage assay (GelA). The method, then:
(§1) Human 72 kDa gelatinase was purified from the conditioned media of fetal lung fibroblasts according to known methods. The enzyme was stored in the pro-form at -80° C. and activated prior to use by treatment with 1 mM aminophenyl mercuriacetate (APMA) for 1 hour at 37° C., then dialyzed against reaction buffer before use. Human neutrophil gelatinase (95 kDa gelatinase) was purified from conditioned media of NSO-cells according to known methods. This enzyme was likewise stored in the zymogen form at -80° C. It was activated by treatment with trypsin (5 μg/mL) for 1 hour at 37° C., followed by addition of bovine pancreatic trypsin inhibitor to 50 μg/mL. Human matrilysin was obtained from a bacterial expression system as a ubiquitin fusion construct Welch, A. R., Holman, C. M., Browner, M. F., Gehring, M. R., Kan, C.-C., & Van Wart, H. E. (1995) Arch. Biochem. Biophys. 324, 59-64. The mature form of matrilysin was purified following activation with 1 mM APMA (1 hour, 37° C.) and the active enzyme stored at -80° C. The catalytic domain of human collagenase-3 was obtained in a manner analogous to that for matrilysin. The final form of collagenase-3 used for these studies consisted of the residues Tyr104 -Asn274 from the full length collagenase sequence. The catalytic domain of human stromelysin-1 was produced via E. coli expression and purification according to known methods; the activated, catalytic domain was stored at -80° C.
The assay methods utilized the fluorogenic substrate: Dnp-Pro-Cha-Gly-Cys(Me)-His-Ala-Lys(NMA)-NH2. (Dnp=dinitro phenyl; Cha=cyclohexylalanine; Cys(Me)=S-methyl cysteine, Lys(NMA)=N^ε-methyl-anthranoyl-1-lysine). Stock solutions were prepared in DMSO. Stock solutions of compounds of formula I (inhibitor) were also prepared in DMSO.
For gelatinase-A and gelatinase-B, the buffer was pH 7.5, 50 mM TrisHCl, 200 mM NaCl, 5 mM CaCl2, 20 μM ZnCl2, 0.05% (wt/v) Brij-35. For matrilysin and the catalytic domain of collagenase-3, the buffer composition was pH 7.5, 50 mM Hepes, 200 mM NaCl, 5 mM CaCl2, 20 μM ZnCl2, 0.05% (wt/v) Brij-35. The final substrate concentration in all cases 10 μM. The approximate concentrations for the enzymes were: gelatinase-A, 0.8 nM; gelatinase-B, 0.5 nM; collagenase-3, 0.4 nM; matrilysin, 10 nM. […] The extent of substrate conversion was determined by reading the fluorescence of the stopped reactions (excitation wavelength: 355 nm; emission wavelength: […]).
A rate at each inhibitor concentration was obtained from a linear least squares fit to the fluorescence time course. The percent inhibition at inhibitor concentration [I] was calculated as: […]

For assay [2], the target named is T2, human collagenase-3 (catalytic domain) (Homo sapiens, UniProt P45452).
T2 construct: ubiquitin (cleaved yes); made in house; host or cells: bacterial expression system (analogous to matrilysin)
The assay is described as follows: IC50 for inhibition of the catalytic domain of human collagenase-3, fluorogenic peptide cleavage assay (Coll-3).
Method: Human matrilysin was obtained from a bacterial expression system as a ubiquitin fusion construct Welch, A. R., Holman, C. […] The mature form of matrilysin was purified following activation with 1 mM APMA (1 hour, 37° C.) and the active enzyme stored at -80° C. The catalytic domain of human collagenase-3 was obtained in a manner analogous to that for matrilysin. The final form of collagenase-3 used for these studies consisted of the residues Tyr104 -Asn274 from the full length collagenase sequence.
For matrilysin and the catalytic domain of collagenase-3, the buffer composition was pH 7.5, 50 mM Hepes, 200 mM NaCl, 5 mM CaCl2, 20 μM ZnCl2, 0.05% (wt/v) Brij-35. The final substrate concentration in all cases 10 μM. The approximate concentrations for the enzymes were: gelatinase-A, 0.8 nM; gelatinase-B, 0.5 nM; collagenase-3, 0.4 nM; matrilysin, 10 nM. To perform the peptide cleavage assay, the vessel containing buffer and compound of formula I were pre-equilibrated at 37° C., then the reaction initiated by successive addition of concentrated stocks of enzyme and substrate, and incubation at 37° C. was continued. At successive time points between 30 and 120 minutes, 50 μL aliquots of the assays were pulled and the enzymatic reaction stopped by addition to 150 μL of 30 mM EDTA (pH 7.4) in the well of a black, flat bottom microtiter plate.
% inh[I]=100(1-rate[I]/ratePC)
(§2) % inh[I]=percent inhibition at inhibitor concentration [I]
(§3) rate[I]=rate at inhibitor concentration [I]
ratePC=rate of positive control […]

For assay [3], the target named is T3, gelatinase-B (human neutrophil gelatinase, 95 kDa gelatinase) (Homo sapiens, UniProt P14780).
T3 construct: made in house; host or cells: NSO-cells (purified from conditioned media)
Put plainly: IC50 for inhibition of gelatinase-B (human neutrophil gelatinase, 95 kDa), fluorogenic peptide cleavage assay (GelB).
Method: For gelatinase-A and gelatinase-B, the buffer was pH 7.5, 50 mM TrisHCl, 200 mM NaCl, 5 mM CaCl2, 20 μM ZnCl2, 0.05% (wt/v) Brij-35. […] The final substrate concentration in all cases 10 μM. The approximate concentrations for the enzymes were: gelatinase-A, 0.8 nM; gelatinase-B, 0.5 nM; collagenase-3, 0.4 nM; matrilysin, 10 nM. To perform the peptide cleavage assay, the vessel containing buffer and compound of formula I were pre-equilibrated at 37° C., then the reaction initiated by successive addition of concentrated stocks of enzyme and substrate, and incubation at 37° C. was continued. At successive time points between 30 and 120 minutes, 50 μL aliquots of the assays were pulled and the enzymatic reaction stopped by addition to 150 μL of 30 mM EDTA (pH 7.4) in the well of a black, flat bottom microtiter plate. The extent of substrate conversion was determined by reading the fluorescence of the stopped reactions (excitation wavelength: 355 nm; emission wavelength: 460 nM).
% inh[I]=100(1-rate[I]/ratePC)
as §2, §3
ratePC=rate of positive control […]

In assay [4] the test system is human stromelysin-1 (catalytic domain). The assay is described as follows: IC50 for inhibition of the catalytic domain of human stromelysin-1, fluorogenic substrate assay (Strom-1). To be noted: pH 6.5, ambient temperature, 60 min, 10 μM substrate, 10 nM enzyme. The method, then:
as §1
The assay methods utilized the fluorogenic substrate: Dnp-Pro-Cha-Gly-Cys(Me)-His-Ala-Lys(NMA)-NH2. […]
Measurements for stromelysin-1: the catalytic domain of stromelysin-1 was tested using the same substrate but with a modified protocol. […] The reaction was started by addition of an aliquot of enzyme stock and the generated fluorescence was read directly after 60 minutes. […] The % inh[I] was calculated as: […]
where Fluor[I]=corrected fluorescence at 60 minutes observed for inhibitor concentration [I]
FluorPC=corrected fluorescence at 60 minutes observed for the positive control […]

[5] abbreviates: catalytic domain, pH 7.5, 37° C., 10 μM substrate, 0.4 nM enzyme, 5% DMSO, read-out: IC50 Coll-3.

T3 sequence (P14780 107-707 limits assumed): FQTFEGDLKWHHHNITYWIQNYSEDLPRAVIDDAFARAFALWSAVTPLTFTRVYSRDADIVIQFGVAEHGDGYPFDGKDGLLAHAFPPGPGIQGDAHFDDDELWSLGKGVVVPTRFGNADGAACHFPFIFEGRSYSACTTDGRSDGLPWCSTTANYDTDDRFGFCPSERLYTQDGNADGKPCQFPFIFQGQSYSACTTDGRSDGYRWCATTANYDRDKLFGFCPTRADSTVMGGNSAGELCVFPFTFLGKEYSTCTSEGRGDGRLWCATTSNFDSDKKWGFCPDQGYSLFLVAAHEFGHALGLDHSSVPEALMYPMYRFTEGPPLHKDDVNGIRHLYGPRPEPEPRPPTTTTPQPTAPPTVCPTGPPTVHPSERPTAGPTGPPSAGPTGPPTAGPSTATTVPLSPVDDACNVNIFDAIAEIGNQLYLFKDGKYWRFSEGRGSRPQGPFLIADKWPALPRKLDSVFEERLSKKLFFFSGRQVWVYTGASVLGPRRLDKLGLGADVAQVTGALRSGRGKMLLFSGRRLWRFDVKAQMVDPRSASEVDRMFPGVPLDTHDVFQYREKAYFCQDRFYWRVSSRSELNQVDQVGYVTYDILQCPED

In the case of `CC1(c2ccc(Oc3ccccc3)cc2)C(=O)NC(=O)NC1=O` [A, 5-methyl-5-(4-phenoxyphenyl)pyrimidine-2,4,6-trione], the IC50 (commonly the point on the concentration scale where inhibition reaches its midpoint) in assay [1] was 80 nM; in assay [2] (setting [5]), 65 nM; in assay [3] (pH 7.5, 37° C., 10 μM substrate, 0.5 nM enzyme, 5% DMSO, read-out: IC50 GelB), 52 nM; in assay [4], 2000 nM.

On to `CCCCCCC1(c2ccc(Oc3ccccc3)cc2)C(=O)NC(=O)NC1=O` [B, 5-hexyl-5-(4-phenoxyphenyl)pyrimidine-2,4,6-trione], for which the IC50 was found to be 67 nM in assay [1], 78 nM in assay [2] (setting [5]), 50 nM in assay [3] and 2000 nM in assay [4].

As for `O=C1NC(=O)C(COCc2ccccc2)(c2ccc(Oc3ccccc3)cc2)C(=O)N1` [C, 5-benzyloxymethyl-5-(4-phenoxyphenyl)pyrimidine-2,4,6-trione], the concentration for half-maximal inhibition (IC50) came out at 26 nM in assay [1], 47 nM in assay [2], 23 nM in assay [3] and 930 nM in assay [4] (value in nM).

For `O=C1NC(=O)C(CCO)(c2ccc(Oc3ccccc3)cc2)C(=O)N1` [D, 5-(2-hydroxyethyl)-5-(4-phenoxyphenyl)pyrimidine-2,4,6-trione], in assay [1] (pH 7.5, 37° C., 10 μM substrate, 0.8 nM enzyme, 5% DMSO, read-out: IC50 GelA), the IC50 stood at 59 nM.
